In assay [1] the test system is Saccharomyces cerevisiae. To be noted: against Saccharomyces cerevisiae; cited from earlier work.
In assay [2] the test system is Cladosporium cucumerinum. The following applies: against Cladosporium cucumerinum; cited from earlier work.
For assay [3], the system named is Ophiostoma ulmi. The following applies: against Ophiostoma ulmi; cited from earlier work.
The subject of assay [4] is Aspergillus niger. To be noted: against Aspergillus niger; cited from earlier work.
For assay [5], the system named is Bacillus subtilis. To be noted: against Bacillus subtilis; cited from earlier work.
Assay [6] deals with Helicobacter pylori. Description: in vitro screen against Helicobacter pylori (agar dilution / microdilution broth MIC). The class given is cell-based. (In general: In agar dilution, organisms are placed on agar that contains the substance at set levels.)
For assay [7], the system named is Bacillus cereus. The following applies: against Bacillus cereus; cited from earlier work.
Assay [8] deals with Escherichia coli. To be noted: against Escherichia coli; cited from earlier work.
For assay [9], the system named is Botrytis cinerea. The following applies: against Botrytis cinerea; cited from earlier work.
Assay [10] concerns Helicobacter pylori. The following applies: cited from earlier work.

These results are taken from patent publication US6372781B1, “Compounds for treating gastroduodenal diseases” (Pfizer Inc., priority 1994, dated 2002).

`COc1cc(O)cc2c1C(=O)OC2CCCCCC1CCCC2(CCC(C)O2)O1` (stereo not shown) [spirolaxine]: the antifungal activity entry in assay [1], in assay [2], in [3], in assay [4] and in assay [9] was “no antifungal activity” in each case. Besides, the bacteriostatic activity entry in assay [5], in assay [7] and in [8] was “weak bacteriostatic activity” throughout. The “helicobactericidal activity (kills Helicobacter pylori)” value in assay [6] is on record as “potent helicobactericidal”.
Consider colloidal bismuth subcitrate, for which the helicobactericidal activity result in [10] is “helicobactericidal”.
